Measured values as given in patent publication US20100137327A1, “NOVEL SEM[…] CARBONYLHYDRAZIDE DERIVATIVES USEFUL AS POTASSIUM CHANNEL MODULATORS” (NeuroSearch A/S, priority 2007, published 2010).

Target: BK channels heterologously expressed in Xenopus laevis oocytes (Homo sapiens, UniProt Q12791)
Conditions: 30 μM compound added after stable current level, step from −40 mV (5 s) to +30 mV (1 s), repeated, FIG. 1
Procedure: The electrical current through the BK channel is measured conventional two-electrode voltage clamp. BK current is activated by repeated step protocols. In brief, this protocol goes from a resting membrane potential of −40 mV lasting for 5 s to a depolarised step to +30 mV lasting for 1 s. The protocol was repeated continuously.
Having reached a stable current level, Compound A (30 μM), was added.

BK channels heterologously expressed in Xenopus laevis oocytes, sequence (Q12791 whole entry): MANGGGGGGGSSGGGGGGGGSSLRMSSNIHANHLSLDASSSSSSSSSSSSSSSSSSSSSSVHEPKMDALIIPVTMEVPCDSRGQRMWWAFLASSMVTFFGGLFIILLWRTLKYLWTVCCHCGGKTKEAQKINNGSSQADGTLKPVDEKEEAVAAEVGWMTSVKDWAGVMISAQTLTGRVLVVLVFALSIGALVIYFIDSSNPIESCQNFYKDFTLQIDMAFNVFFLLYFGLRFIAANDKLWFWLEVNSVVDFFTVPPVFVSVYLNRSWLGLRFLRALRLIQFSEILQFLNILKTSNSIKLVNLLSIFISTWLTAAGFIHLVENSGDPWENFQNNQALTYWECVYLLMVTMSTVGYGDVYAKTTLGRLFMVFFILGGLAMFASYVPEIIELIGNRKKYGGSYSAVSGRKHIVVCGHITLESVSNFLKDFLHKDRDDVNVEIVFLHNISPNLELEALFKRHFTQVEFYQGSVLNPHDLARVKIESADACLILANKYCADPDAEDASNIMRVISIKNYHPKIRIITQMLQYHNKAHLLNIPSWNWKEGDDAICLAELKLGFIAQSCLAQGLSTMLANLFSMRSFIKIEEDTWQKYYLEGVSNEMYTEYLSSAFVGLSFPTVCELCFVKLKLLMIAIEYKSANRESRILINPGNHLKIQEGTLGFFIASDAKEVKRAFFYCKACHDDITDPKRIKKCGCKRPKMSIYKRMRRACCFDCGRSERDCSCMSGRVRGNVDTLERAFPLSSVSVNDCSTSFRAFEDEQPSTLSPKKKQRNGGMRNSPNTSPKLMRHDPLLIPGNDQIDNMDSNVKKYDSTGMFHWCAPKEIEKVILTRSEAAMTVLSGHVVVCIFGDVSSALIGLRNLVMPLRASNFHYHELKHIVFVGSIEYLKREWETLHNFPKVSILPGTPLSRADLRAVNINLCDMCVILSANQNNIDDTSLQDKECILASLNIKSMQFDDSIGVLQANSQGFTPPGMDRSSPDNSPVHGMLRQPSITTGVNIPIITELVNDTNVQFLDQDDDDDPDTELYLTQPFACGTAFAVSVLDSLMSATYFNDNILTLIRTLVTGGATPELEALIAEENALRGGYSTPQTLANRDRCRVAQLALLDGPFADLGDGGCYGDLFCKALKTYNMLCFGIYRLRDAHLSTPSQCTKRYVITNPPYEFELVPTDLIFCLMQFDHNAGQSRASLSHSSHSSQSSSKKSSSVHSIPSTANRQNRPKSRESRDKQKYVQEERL

SMILES: O=C(NNc1ccc(-c2ccc(C(F)(F)F)cc2)cc1-c1nnn[nH]1)c1cc(C(F)(F)F)cc(C(F)(F)F)c1 [Compound A, 3,5-Bis-trifluoromethyl-benzoic acid N40-[3-(1H-tetrazol-5-yl)-4′-trifluoromethyl-biphenyl-4-yl]-hydrazide]
- current activated by depolarisation (BK channel opening activity): marked increase
